For three molecules, IC50 results are on record in ChEMBL document CHEMBL1149802, “Chemiluminescent high-throughput microassay applied to imidazo[2,1-b]thiazole derivatives as potential acetylcholinesterase and butyrylcholinesterase inhibitors” (Eur J Med Chem, 2008).

As usually defined, the IC50 is the midpoint of a concentration-inhibition curve.

This assay deals with Acetylcholinesterase (Electrophorus electricus, UniProt O42275). The assay can be described thus: Inhibition of electric eel acetylcholine esterase type V-S in presence of acetylcholine substrate by chemiluminescent assay.
Sequence of Acetylcholinesterase (O42275 whole entry): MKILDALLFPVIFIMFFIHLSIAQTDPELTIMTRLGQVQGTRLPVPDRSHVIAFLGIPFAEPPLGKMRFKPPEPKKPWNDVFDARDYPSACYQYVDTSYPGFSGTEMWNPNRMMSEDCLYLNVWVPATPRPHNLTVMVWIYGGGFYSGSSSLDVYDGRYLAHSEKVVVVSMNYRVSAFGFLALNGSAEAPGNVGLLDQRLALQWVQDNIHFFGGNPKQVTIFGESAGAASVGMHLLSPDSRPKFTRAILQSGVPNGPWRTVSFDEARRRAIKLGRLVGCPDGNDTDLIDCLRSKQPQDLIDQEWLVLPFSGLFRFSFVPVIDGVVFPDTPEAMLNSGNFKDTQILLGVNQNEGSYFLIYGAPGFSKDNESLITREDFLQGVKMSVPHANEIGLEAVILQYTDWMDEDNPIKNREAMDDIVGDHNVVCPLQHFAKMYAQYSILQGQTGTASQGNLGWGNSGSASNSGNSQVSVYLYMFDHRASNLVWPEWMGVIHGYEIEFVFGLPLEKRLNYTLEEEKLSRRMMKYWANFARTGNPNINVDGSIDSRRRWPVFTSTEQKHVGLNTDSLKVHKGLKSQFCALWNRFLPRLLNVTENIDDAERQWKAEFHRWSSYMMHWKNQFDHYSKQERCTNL
`O=C(c1ccccc1)N1CCN(/N=C/c2c(Cl)nc3sccn23)C1=O`: the IC50 was found to be 4.2 µM. On to `CC(=O)N1CCN(/N=C/c2c(C)nc3sccn23)C1=O`, for which the concentration for half-maximal inhibition (IC50) was found to be 35 µM. `CC(=O)N1CCN(/N=C/c2c(Cl)nc3sccn23)C1=O`: the IC50 was 60 µM.
